Where a name gives a salt, the structure may show the parent alone. Read-outs that look alike come from different tables or passages of the source.
How the values were obtained:
Type in all cases: biochemical
recombinant human VAP-1 = molecular target: T1, recombinant human VAP-1 (Homo sapiens, UniProt Q16853); assay: Activity on recombinant human VAP-1, Amplex Red HRP-coupled hydrogen peroxide assay, benzylamine substrate; settings: recombinant human VAP-1, benzylamine substrate, read-out: Inhibitory Activity (IC50, nM) human VAP-1
T1 construct: purchased R&D systems
T1 sequence (Q16853 1-763): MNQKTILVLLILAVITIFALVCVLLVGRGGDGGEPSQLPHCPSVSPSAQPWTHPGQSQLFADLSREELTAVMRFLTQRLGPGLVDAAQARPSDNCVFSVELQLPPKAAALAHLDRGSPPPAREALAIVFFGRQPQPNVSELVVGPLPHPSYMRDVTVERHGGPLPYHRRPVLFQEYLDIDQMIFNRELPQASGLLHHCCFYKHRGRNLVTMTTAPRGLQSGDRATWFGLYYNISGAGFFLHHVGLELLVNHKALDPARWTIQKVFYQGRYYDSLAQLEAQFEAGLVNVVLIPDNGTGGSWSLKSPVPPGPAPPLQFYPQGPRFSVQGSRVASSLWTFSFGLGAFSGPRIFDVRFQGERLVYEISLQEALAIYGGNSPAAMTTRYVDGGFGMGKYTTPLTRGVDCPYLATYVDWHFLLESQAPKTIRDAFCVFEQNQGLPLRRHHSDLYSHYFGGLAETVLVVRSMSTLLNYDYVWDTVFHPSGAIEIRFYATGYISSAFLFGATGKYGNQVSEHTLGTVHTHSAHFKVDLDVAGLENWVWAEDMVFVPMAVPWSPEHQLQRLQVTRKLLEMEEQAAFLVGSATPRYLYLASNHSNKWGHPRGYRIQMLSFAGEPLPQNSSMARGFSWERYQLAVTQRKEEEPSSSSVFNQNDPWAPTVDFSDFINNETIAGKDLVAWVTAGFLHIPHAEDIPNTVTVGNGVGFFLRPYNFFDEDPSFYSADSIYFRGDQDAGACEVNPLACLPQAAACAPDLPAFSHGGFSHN
Outline: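 H2O2 generation from 1 mM benzylamine was coupled via 1 U/mL HRP to 200 uM Amplex Red; inhibitors, serially diluted 1:3 over 8 points with under 1% final DMSO, had been preincubated 30 min at 37 °C. IC50 from percentage drop in rate.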

[1] = molecular target: T2, recombinant human DAO (diamine oxidase) (Homo sapiens, UniProt P19801); assay: Activity on recombinant human DAO, Amplex Red method, 1 mM putrescine substrate; settings: recombinant human DAO, read-out: Inhibitory Activity (IC50, nM) DAO
T2 construct: purchased R&D systems
T2 sequence (P19801 20-751): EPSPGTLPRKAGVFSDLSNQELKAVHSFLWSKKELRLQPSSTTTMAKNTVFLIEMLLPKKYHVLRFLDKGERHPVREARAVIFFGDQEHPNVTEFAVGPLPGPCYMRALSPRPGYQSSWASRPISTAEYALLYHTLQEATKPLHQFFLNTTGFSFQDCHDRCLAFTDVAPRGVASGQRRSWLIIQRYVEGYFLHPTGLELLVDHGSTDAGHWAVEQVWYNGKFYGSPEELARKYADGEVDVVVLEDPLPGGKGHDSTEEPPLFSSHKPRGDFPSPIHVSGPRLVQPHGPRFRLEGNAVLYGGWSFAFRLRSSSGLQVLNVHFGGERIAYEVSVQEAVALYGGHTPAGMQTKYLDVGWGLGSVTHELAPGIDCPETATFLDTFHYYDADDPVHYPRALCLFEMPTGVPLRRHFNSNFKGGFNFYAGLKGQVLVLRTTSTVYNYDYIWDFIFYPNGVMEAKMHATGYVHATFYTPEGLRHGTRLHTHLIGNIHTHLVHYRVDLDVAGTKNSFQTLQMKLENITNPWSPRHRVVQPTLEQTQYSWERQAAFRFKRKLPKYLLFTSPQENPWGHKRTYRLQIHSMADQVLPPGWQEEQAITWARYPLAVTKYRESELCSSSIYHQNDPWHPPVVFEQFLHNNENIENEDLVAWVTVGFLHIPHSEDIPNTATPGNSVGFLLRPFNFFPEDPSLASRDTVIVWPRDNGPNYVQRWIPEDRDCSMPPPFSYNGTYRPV
Outline: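 Inhibition of recombinant human DAO (diamine oxidase, R&D systems) was assessed with the Amplex Red Hydrogen Peroxide Assay Kit. Hydrogen peroxide produced from 1 mM putrescine was detected through an HRP-coupled reaction that converts Amplex Red into fluorescent resorufin, read at 544 nm excitation and 590 nm emission. IC50 values came from four-parameter logistic fits in GraphPad Prism.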

[2] = molecular target: T3, recombinant human MAO-B (monoamine oxidase-B) (Homo sapiens, UniProt P27338); assay: Activity on recombinant human MAO-B, Amplex Red method, 1 mM benzylamine substrate; settings: read-out: Inhibitory Activity (IC50, nM) MAO-B
T3 construct: purchased Sigma-Aldrich
T3 sequence (P27338 1-520): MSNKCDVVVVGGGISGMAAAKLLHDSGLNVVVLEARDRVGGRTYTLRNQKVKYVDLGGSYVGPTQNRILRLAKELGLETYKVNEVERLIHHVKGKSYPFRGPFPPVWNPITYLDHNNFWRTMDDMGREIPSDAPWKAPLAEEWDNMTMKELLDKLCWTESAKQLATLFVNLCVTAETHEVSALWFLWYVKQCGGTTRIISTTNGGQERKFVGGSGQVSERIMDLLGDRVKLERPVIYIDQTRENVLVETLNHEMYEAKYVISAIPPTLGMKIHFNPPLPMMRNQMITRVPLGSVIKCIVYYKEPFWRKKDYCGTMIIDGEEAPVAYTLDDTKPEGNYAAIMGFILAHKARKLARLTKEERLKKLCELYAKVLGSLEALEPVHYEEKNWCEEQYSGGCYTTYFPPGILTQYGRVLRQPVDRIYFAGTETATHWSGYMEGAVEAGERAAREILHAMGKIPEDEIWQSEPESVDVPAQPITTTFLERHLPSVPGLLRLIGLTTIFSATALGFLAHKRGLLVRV
Outline: (§1)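 First, serially diluted compounds were incubated with recombinant enzyme in 50 mM sodium phosphate, pH 7.4, for 30 min at 37° C. Next, Amplex Red (200 uM), HRP (1 U/mL) and tyramine (0.5 mM, MAO-A) or benzylamine (1 mM, MAO-B) were added. Then fluorescence was monitored over 1-2 h and IC50 fitted.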

[3] = molecular target: T4, recombinant human MAO-A (monoamine oxidase-A) (Homo sapiens, UniProt P21397); assay: Activity on recombinant human MAO-A, Amplex Red method, 0.5 mM tyramine substrate; settings: read-out: Inhibitory Activity (IC50, nM) MAO-A
T4 construct: purchased Sigma-Aldrich
T4 sequence (P21397 1-527): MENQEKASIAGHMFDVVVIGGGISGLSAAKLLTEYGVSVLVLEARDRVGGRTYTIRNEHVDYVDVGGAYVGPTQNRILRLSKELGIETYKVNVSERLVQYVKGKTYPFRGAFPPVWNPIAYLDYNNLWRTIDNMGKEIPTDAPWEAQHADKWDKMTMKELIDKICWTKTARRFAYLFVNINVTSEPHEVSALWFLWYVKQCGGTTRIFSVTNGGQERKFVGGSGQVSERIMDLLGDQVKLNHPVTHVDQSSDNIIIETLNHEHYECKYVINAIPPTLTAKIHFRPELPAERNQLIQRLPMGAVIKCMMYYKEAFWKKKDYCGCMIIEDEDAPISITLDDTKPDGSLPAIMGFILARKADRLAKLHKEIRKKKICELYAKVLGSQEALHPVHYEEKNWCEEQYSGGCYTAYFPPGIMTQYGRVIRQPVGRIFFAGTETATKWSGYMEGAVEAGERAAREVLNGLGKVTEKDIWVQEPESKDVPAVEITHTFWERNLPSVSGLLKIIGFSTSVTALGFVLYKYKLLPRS
Outline: as §1

[4] = 1 mM putrescine, * = between 10 and 100 nM, ** = between 300 and 1000 nM

Compound	IC50 (recombinant human VAP-1)	IC50 ([1]; 1 mM putrescine substrate)	IC50 ([2]; 1 mM benzylamine substrate)	IC50 ([3]; 0.5 mM tyramine substrate)	IC50 (recombinant human VAP-1; 30 min preincubation at 37° C.)	IC50 [1, 4]	IC50 ([2]; 1 mM benzylamine)	IC50 ([3]; 0.5 mM tyramine)
NC/C(=C\F)Cn1ncn(-c2ncc(-c3cccc(-c4nnc[nH]4)c3)s2)c1=O [Example 228, 2-[(2E)-2-(aminomethyl)-3-fluoroprop-2-en-1-yl]-4-{5-[3-(4H-1,2,4-triazol-3-yl)phenyl]-1,3-thiazol-2-yl}-2,4-dihydro-3H-1,2,4-triazol-3-one]	0.38 nM	< 100 nM	9.2 nM	> 100000 nM				
NC/C(=C/F)Cn1ncn(-c2cccc(Br)c2)c1=O [Example 3, 2-[(2Z)-2-(aminomethyl)-3-fluoroprop-2-en-1-yl]-4-(3-bromophenyl)-2,4-dihydro-3H-1,2,4-triazol-3-one hydrochloride]					2.5 nM	542 nM	121 nM	3500 nM
NC/C(=C\F)Cn1ncn(-c2cccc(-c3ccc(-c4ccon4)cc3)n2)c1=O [Example 176, 2-[(2E)-2-(aminomethyl)-3-fluoroprop-2-en-1-yl]-4-{6-[4-(1,2-oxazol-3-yl)phenyl]pyridin-2-yl}-2,4-dihydro-3H-1,2,4-triazol-3-one]	0.83 nM	< 30 nM	3320 nM	7900 nM				
NC/C(=C\F)Cn1ncn(-c2cccc(-c3ccc(C(=O)N4CCOCC4)cc3)c2)c1=O [Example 78, 2-[(2E)-2-(aminomethyl)-3-fluoroprop-2-en-1-yl]-4-[4′-(morpholin-4-ylcarbonyl)biphenyl-3-yl]-2,4-dihydro-3H-1,2,4-triazol-3-one hydrochloride]					1 nM	0.2 nM	> 10000 nM	> 100000 nM
NC/C(=C\F)Cn1ncn(-c2ccc(-c3ccc4nonc4c3)cc2F)c1=O [Example 46, 2-[(2E)-2-(aminomethyl)-3-fluoroprop-2-en-1-yl]-4-[4-(2,1,3-benzooxadiazol-5-yl)-2-fluorophenyl]-2,4-dihydro-3H-1,2,4-triazol-3-one hydrochloride]					0.32 nM	0.76 nM	< 10 nM	120 nM
CC(=O)Nc1ccc(-c2ccc(-c3cccc(-n4cnn(C/C(=C/F)CN)c4=O)c3)cc2)cc1 [Example 68, N-(3″-{1-[(2E)-2-(aminomethyl)-3-fluoroprop-2-en-1-yl]-5-oxo-1,5-dihydro-4H-1,2,4-triazol-4-yl}-1,1′:4′,1″-terphenyl-4-yl)acetamide hydrochloride]					0.82 nM	2.7 nM	> 10000 nM	37800 nM
NC/C(=C\F)Cn1ncn(-c2cc(C#Cc3cccnc3)ccn2)c1=O [Example 245, 2-[(2E)-2-(aminomethyl)-3-fluoroprop-2-en-1-yl]-4-[4-(pyridin-3-ylethynyl)pyridin-2-yl]-2,4-dihydro-3H-1,2,4-triazol-3-one hydrochloride]	0.9 nM	11 nM	300 nM	> 100000 nM				
NC/C(=C/F)Cn1ncn(-c2ccc(F)c(F)c2)c1=O [Example 9, 2-[(2Z)-2-(aminomethyl)-3-fluoroprop-2-en-1-yl]-4-(3,4-difluorophenyl)-2,4-dihydro-3H-1,2,4-triazol-3-one]					5.4 nM	290 nM	85 nM	2100 nM

Other lines, results leading:

IC50 (recombinant human VAP-1)	IC50 ([1]; 1 mM putrescine substrate)	IC50 ([2]; 1 mM benzylamine substrate)	IC50 ([3]; 0.5 mM tyramine substrate)	IC50 (recombinant human VAP-1; 30 min preincubation at 37° C.)	IC50 [1, 4]	IC50 ([2]; 1 mM benzylamine)	IC50 ([3]; 0.5 mM tyramine)	Compound
1.9 nM	2.1 nM	880 nM	> 100000 nM					CC(C)c1nc(-c2cccc(-c3cccc(-n4cnn(C/C(=C/F)CN)c4=O)n3)c2)no1 [Example 181, 2-[(2E)-2-(aminomethyl)-3-fluoroprop-2-en-1-yl]-4-(6-{3-[5-(propan-2-yl)-1,2,4-oxadiazol-3-yl]phenyl}pyridin-2-yl)-2,4-dihydro-3H-1,2,4-triazol-3-one]
				1.7 nM	30 nM	2100 nM	5700 nM	NC/C(=C/F)Cn1ncn(-c2nccs2)c1=O [Example 39, 2-[(2Z)-2-(aminomethyl)-3-fluoroprop-2-en-1-yl]-4-(1,3-thiazol-2-yl)-2,4-dihydro-3H-1,2,4-triazol-3-one hydrochloride]
0.52 nM	98 nM	> 10000 nM	> 10000 nM					Cc1cc(-c2ccc3c(c2)NC(=O)C3)cnc1-n1cnn(C/C(=C/F)CN)c1=O [Example 151, 6-(6-{1-[(2E)-2-(aminomethyl)-3-fluoroprop-2-en-1-yl]-5-oxo-1,5-dihydro-4H-1,2,4-triazol-4-yl}-5-methylpyridin-3-yl)-1,3-dihydro-2H-indol-2-one]
				0.93 nM	< 30 nM	> 10000 nM	> 100000 nM	CC(C)c1nc(-c2cccc(-c3cccc(-n4cnn(C/C(=C/F)CN)c4=O)c3)c2)no1 [Example 65, 2-[(2E)-2-(aminomethyl)-3-fluoroprop-2-en-1-yl]-4-{3′-[5-(propan-2-yl)-1,2,4-oxadiazol-3-yl]biphenyl-3-yl}-2,4-dihydro-3H-1,2,4-triazol-3-one hydrochloride]
